Source: patent publication US12201610B2, “Compositions comprising aticaprant” (Janssen Pharmaceuticals, Inc., priority 2022, dated 2025)

Tested on: subjects with MDD
Experiment: SATE score (Example 6)
Format: in vivo, human
Details: Treatment Week 6, aticaprant 10 mg
From the text: SATE is a one to three questionnaire administered when the subject is unable to complete other evaluations, i.e., away from the clinical setting such as at home. SATE is useful to evaluate improvement or deterioration of depressive symptoms of the subjects over a short period of time. […] See, Table 6.
iv. To investigate the effect of aticaprant on symptoms of depression using the Clinical Global Impression-Severity (CGI-S), the patient reported Symptoms of Major Depressive Disorder Scale (SMDDS) and the self-assessment of treatment experience (SATE).
• (i) Depression: Montgomery-Åsberg Depression Rating Scale (MADRS), Clinical Global Impression-Severity (CGI-S), Symptoms of Major Depressive Disorder Scale (SMDDS), and Self-assessment of treatment experience (SATE) • (ii) Anhedonia: Snaith-Hamilton Pleasure Scale (SHAPS) • (iii) Anxiety: Structured Interview Guide for the Hamilton Anxiety scale (SIGH-A) and HAM-A6 • (iv) Effects on Cognition: The Cognitive and Physical Functioning Questionnaire (CPFQ) • (v) Safety assessments

Cc1cc(C)cc(C2CCCN2Cc2ccc(Oc3ccc(C(N)=O)cc3F)cc2)c1 (stereo not drawn) [aticaprant, 3-fluoro-4-4-2-(3,5-dimethylphenyl)pyrrolidin-1-yl-methylphenoxybenzamide]
SATE: Depression Worsened (Much worse) (n = 0): 0 subjects
SATE: Depression Worsened (Slightly worse) (n = 0): 0 subjects
SATE: Depression Worsened (Very much worse) (n = 0): 0 subjects
SATE: Depression Much improved (n = 21): 6 subjects
SATE: Depression Slightly improved (n = 21): 15 subjects
SATE: Depression Very Much Improved (n = 21): 0 subjects
SATE: Overall Depression (Got worse) (n = 30): 0 subjects
SATE: Overall Depression (Improved) (n = 30): 21 subjects
SATE: Overall Depression (Not changed) (n = 30): 9 subjects
